“And” between values parts separate entries of the source, which are not always exact repeats. Equal entries are not always repeated.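 Exposure lasted 48 hours, with cells grown in 96-well plates and compounds tested at five concentrations. GI50 = concentration required for 50% inhibition of growth. TGI denotes the concentration required for complete inhibition of growth.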
Columns and labels:
Assay in all cases: NCI tumour cell line growth inhibition, 48 h
[1] = tested on: 786-0 renal
[2] = tested on: A498 renal
[3] = tested on: A549 NSCLC
[4] = tested on: ACHN renal
[5] = tested on: CAKI-1 renal
[6] = tested on: CCRF-CEM leukemia
[7] = tested on: COLO 205 colon
[8] = tested on: DLD-1 colon
[9] = tested on: DMS 114 small cell lung
[10] = tested on: DMS 273 small cell lung
[11] = tested on: EKVX NSCLC
[12] = tested on: HCC-2998 colon
[13] = tested on: HCT-116 colon
[14] = tested on: HCT-15 colon
[15] = tested on: HL-60(TB) leukemia
[16] = tested on: HOP-18 NSCLC
[17] = tested on: HOP-62 NSCLC
[18] = tested on: HOP-92 NSCLC
[19] = tested on: HT29 colon
[20] = tested on: IGROV1 ovarian
[21] = tested on: K-562 leukemia
[22] = tested on: KM12 colon
[23] = tested on: KM20L2 colon
[24] = tested on: LOX IMVI melanoma
[25] = tested on: LXFL 529 NSCLC
[26] = tested on: M14 melanoma
[27] = tested on: M19-MEL melanoma
[28] = tested on: MALME-3M melanoma
[29] = tested on: MOLT-4 leukemia
[30] = tested on: NCI-H226 lung
[31] = tested on: NCI-H23 lung
[32] = tested on: NCI-H460 lung
[33] = tested on: NCI-H522 lung
[34] = tested on: OVCAR-3 ovarian
[35] = tested on: OVCAR-4 ovarian
[36] = tested on: OVCAR-5 ovarian
[37] = tested on: OVCAR-8 ovarian
[38] = tested on: RPMI-8226 leukemia
[39] = tested on: RXF 393 renal
[40] = tested on: RXF-631 renal
[41] = tested on: SF-268 CNS
[42] = tested on: SF-295 CNS
[43] = tested on: SF-539 CNS
[44] = tested on: SK-MEL-2 melanoma
[45] = tested on: SK-MEL-28 melanoma
[46] = tested on: SK-MEL-5 melanoma
[47] = tested on: SK-OV-3 ovarian
[48] = tested on: SN12C renal
[49] = tested on: SNB-19 CNS
[50] = tested on: SNB-75 CNS
[51] = tested on: SNB-78 CNS
[52] = tested on: SR leukemia
[53] = tested on: SW-620 colon
[54] = tested on: TK-10 renal
[55] = tested on: U251 CNS
[56] = tested on: UACC-257 melanoma
[57] = tested on: UACC-62 melanoma
[58] = tested on: UO-31 renal
[59] = tested on: XF 498 CNS

With `CC(=O)OC[C@]12CC[C@H]3[C@@H](C[C@H]4O[C@]45[C@@H](O)C=CC(=O)[C@]35C)[C@@H]1CC[C@@H]2[C@H](C)[C@H]1CC(C)=C(C)C(=O)O1` the GI50 [1] was 241 nM and 232 nM, the TGI [1] was 597 nM and 595 nM and the GI50 [2] was 852 nM and 1200 nM. The TGI [2] was 2770 nM, the GI50 [3] was 822 nM and 1040 nM and the TGI [3] was 3200 nM. The GI50 [4] was 498 nM and 515 nM, the TGI [4] was 792 nM and 1160 nM and the GI50 [5] was 385 nM and 266 nM. The TGI [5] was 831 nM and 1080 nM, the GI50 [6] was 229 nM and 112 nM and the TGI [6] was 745 nM and 1820 nM. The GI50 [7] was 348 nM and 310 nM, the TGI [7] was 910 nM and the GI50 [8] was 273 nM and 129 nM. The TGI [8] was 649 nM and 310 nM, the GI50 [9] was 324 nM and 357 nM and the TGI [9] was 823 nM and 1120 nM. The GI50 [10] was 605 nM and 420 nM, the TGI [10] was 1510 nM and the GI50 [11] was 601 nM and 753 nM. For the same molecule, the TGI [11] was 1940 nM, the GI50 [12] was 822 nM and 795 nM and the TGI [12] was 2070 nM. For the same molecule, the GI50 [13] was 277 nM and 166 nM, the TGI [13] was 600 nM and 424 nM and the GI50 [14] was 294 nM and 177 nM. The TGI [14] was 751 nM and 371 nM, the GI50 [15] was 243 nM and 119 nM and the TGI [15] was 642 nM and 370 nM. The GI50 [16] was 1050 nM, the TGI [16] was 2420 nM and the GI50 [17] was 1510 nM. The TGI [17] was 3520 nM, the GI50 [18] was 220 nM and 189 nM and the TGI [18] was 722 nM and 1270 nM. For the same molecule, the GI50 [19] was 302 nM and 305 nM, the TGI [19] was 716 nM and 961 nM and the GI50 [20] was 706 nM and 924 nM. For the same molecule, the TGI [20] was 2700 nM, the GI50 [21] was 272 nM and 201 nM and the TGI [21] was 849 nM and 979 nM. The GI50 [22] was 467 nM and 349 nM, the TGI [22] was 1110 nM and the GI50 [23] was 512 nM and 407 nM. For the same molecule, the TGI [23] was 829 nM and 1440 nM, the GI50 [24] was 303 nM and 374 nM and the TGI [24] was 692 nM and 1190 nM. For the same molecule, the GI50 [25] was 347 nM and 219 nM, the TGI [25] was 824 nM and the GI50 [26] was 442 nM and 320 nM. The TGI [26] was 1110 nM, the GI50 [27] was 598 nM and 515 nM and the TGI [27] was 2320 nM. For the same molecule, the GI50 [28] was 1110 nM, the TGI [28] was 2400 nM and the GI50 [29] was 289 nM and 191 nM. The TGI [29] was 878 nM and 615 nM, the GI50 [30] was 983 nM and 583 nM and the TGI [30] was 1900 nM. For the same molecule, the GI50 [31] was 185 nM and 324 nM, the TGI [31] was 371 nM and 858 nM and the GI50 [32] was 588 nM and 1070 nM. The TGI [32] was 3530 nM, the GI50 [33] was 259 nM and 166 nM and the TGI [33] was 561 nM and 406 nM. The GI50 [34] was 314 nM and 176 nM, the TGI [34] was 842 nM and 548 nM and the GI50 [35] was 571 nM and 331 nM. For the same molecule, the TGI [35] was 900 nM and 1060 nM, the GI50 [36] was 883 nM and 1210 nM and the TGI [36] was 2500 nM. The GI50 [37] was 331 nM and 285 nM, the TGI [37] was 899 nM and the GI50 [38] was 260 nM and 107 nM. The TGI [38] was 846 nM and 446 nM, the GI50 [39] was 247 nM and 388 nM and the TGI [39] was 791 nM and 1130 nM. The GI50 [40] was 679 nM and 987 nM, the TGI [40] was 2740 nM and the GI50 [41] was 397 nM and 376 nM. For the same molecule, the TGI [41] was 1280 nM, the GI50 [42] was 974 nM and 1890 nM and the TGI [42] was 4230 nM. The GI50 [43] was 303 nM and 200 nM, the TGI [43] was 730 nM and 452 nM and the GI50 [44] was 752 nM and 484 nM. The TGI [44] was 1520 nM, the GI50 [45] was 526 nM and 381 nM and the TGI [45] was 1090 nM. For the same molecule, the GI50 [46] was 702 nM and 664 nM, the TGI [46] was 2020 nM and the GI50 [47] was 2780 nM. For the same molecule, the TGI [47] was 5980 nM, the GI50 [48] was 401 nM and 322 nM and the TGI [48] was 943 nM and 1160 nM. For the same molecule, the GI50 [49] was 700 nM and 1160 nM, the TGI [49] was 899 nM and 2520 nM and the GI50 [50] was 261 nM and 264 nM. For the same molecule, the TGI [50] was 953 nM and 1250 nM, the GI50 [51] was 453 nM and 321 nM and the TGI [51] was 1840 nM. The GI50 [52] was 189 nM and 187 nM, the TGI [52] was 617 nM and 631 nM and the GI50 [53] was 274 nM and 141 nM. The TGI [53] was 744 nM and 463 nM, the GI50 [54] was 548 nM and 680 nM and the TGI [54] was 1820 nM. The GI50 [55] was 688 nM and 742 nM, the TGI [55] was 910 nM and 1950 nM and the GI50 [56] was 638 nM and 801 nM. For the same molecule, the TGI [56] was 2690 nM, the GI50 [57] was 481 nM and 479 nM and the TGI [57] was 1580 nM. For the same molecule, the GI50 [58] was 840 nM and 776 nM, the TGI [58] was 2000 nM and the GI50 [59] was 422 nM and 234 nM. For the same molecule, the TGI [59] was 799 nM and 581 nM.

`COc1ccc2c(c1)CCC1C3(CCCC21C)OCCO3` (stereo not given) showed a TGI [1] of 38100 nM, a TGI [2] of 82600 nM and a TGI [3] of 69700 nM. For the same molecule, the TGI [4] was 78900 nM, the TGI [5] was over 100000 nM and the TGI [6] was 40600 nM. For the same molecule, the TGI [7] was 35400 nM, the TGI [8] was 34500 nM and the TGI [10] was 40300 nM. For the same molecule, the TGI [11] was 82300 nM, the TGI [12] was 44300 nM and the TGI [13] was 30500 nM. For the same molecule, the TGI [14] was 34200 nM, the TGI [15] was 43200 nM and the TGI [16] was 64800 nM. It also gave a TGI [17] of 28400 nM, a TGI [18] of 35300 nM and a TGI [19] of 33500 nM. The TGI [20] was 79400 nM, the TGI [21] was 42100 nM and the TGI [22] was 51700 nM. The TGI [23] was 39200 nM, the TGI [24] was 30400 nM and the TGI [25] was 44900 nM. For the same molecule, the TGI [26] was 36300 nM, the TGI [27] was 37700 nM and the TGI [28] was 58800 nM. For the same molecule, the TGI [29] was 53500 nM, the TGI [30] was 35700 nM and the TGI [31] was 34200 nM. For the same molecule, the TGI [32] was 46300 nM, the TGI [33] was 37400 nM and the TGI [34] was 35500 nM. The TGI [35] was over 100000 nM, the TGI [36] was over 100000 nM and the TGI [37] was 50400 nM. The TGI [38] was 61200 nM, the TGI [39] was 31100 nM and the TGI [40] was over 100000 nM. It also gave a TGI [41] of 19900 nM, a TGI [42] of 40800 nM and a TGI [43] of 26300 nM. It also gave a TGI [44] of 23500 nM, a TGI [45] of 35300 nM and a TGI [46] of 31100 nM. It also gave a TGI [47] of 60900 nM, a TGI [48] of 30500 nM and a TGI [49] of over 100000 nM. For the same molecule, the TGI [50] was 60300 nM, the TGI [51] was 73900 nM and the TGI [52] was 45400 nM. The TGI [53] was 96200 nM, the TGI [54] was over 100000 nM and the TGI [55] was 29400 nM. For the same molecule, the TGI [56] was 62100 nM, the TGI [57] was 38000 nM and the TGI [58] was 31000 nM.
